The values below come from ChEMBL document CHEMBL1153514, “Fundamental relationships between structure, reactivity, and biological activity for the duocarmycins and CC-1065” (J Med Chem, 2009).

Series [1] can be described thus: Stability assessed as half life at pH 7. The class given is physicochemical. Particulars: buffer.
A short description of series [2]: Stability assessed as half life at pH 3. The class given is physicochemical. The note with it: buffer.
The subject of a further series is L1210. The experiment in a line: Cytotoxicity against mouse L1210 cells. It is filed as functional, cell-based.
Series [3] is described as follows: Stability assessed as half life at pH 2. The class given is physicochemical. Particulars: buffer.

`COC(=O)c1cc2c([nH]1)C(=O)C=C1N(C(=O)OC(C)(C)C)C[C@H]3C[C@]123`: the Stability result in series [1] is “Stable”.
Turning to `O=C1C=C2NC[C@H]3C[C@@]23c2ccccc21`, the Stability result in series [1] is listed as “Stable”. Besides, the half-life (as a rule, the time in which the quantity being followed falls by half) in series [2] is 4200 h.
For the molecule `COC(=O)c1cccc2c1C(=O)C=C1N(C(=O)OC(C)(C)C)C[C@H]3C[C@]123`, the half-inhibitory concentration (IC50) (in general, the concentration that gives 50% inhibition) in the series with L1210 was 70 nM. Further, the half-life in series [2] turned out to be 3.93 h.
Consider `COC(=O)c1cc2c([nH]1)C(=O)C=C1N(C(=O)c3cc4cc(OC)c(OC)c(OC)c4[nH]3)C[C@H]3C[C@]123` [DUOCARMYCIN], for which the Stability result in series [1] is on record as “Stable”. Also, the half-life in series [2] is 177 h.
As for `O=C1C=C2N(c3ccccc3)C[C@H]3C[C@@]23c2ccccc21`, half-maximal inhibition in the series with L1210 (IC50) was put at 1100 nM. The half-life in series [3] is 171 h.
Consider `COc1cc2cc(CN3C[C@H]4C[C@@]45C3=CC(=O)c3ccccc35)[nH]c2c(OC)c1OC`, for which, in the series with L1210, the concentration for half-maximal inhibition (IC50) is 1400 nM. Further, in series [2], the t1/2 is 1291.7 days.
`COc1cc2cc(C(=O)N3C[C@H]4C[C@@]45C3=CC(=O)c3ccccc35)[nH]c2c(OC)c1OC` returned a concentration for half-maximal inhibition (IC50) in the series with L1210 of 0.02 nM. Moreover, in series [2], the half-life is 133 h.
Regarding `CCS(=O)(=O)N1C[C@H]2C[C@@]23C1=CC(=O)c1ccccc13`, the half-life in series [2] is 6.38 h.
For the molecule `CNC(=O)N1C[C@H]2C[C@@]23C1=CC(=O)c1ccccc13`, in series [2], the half-life turned out to be 0.6 h.
`COc1ccc(N2C[C@H]3C[C@@]34C2=CC(=O)c2ccccc24)cc1` showed an IC50 with L1210 of 3200 nM. Also, the half-life in series [3] is 198 h.
Molecule `COC(=O)C1=NC2=C(OCc3ccccc3)C=C3N(C(=O)c4cc5cc(OC)c(OC)c(OC)c5[nH]4)C[C@H]4C[C@@]34C2=C1` came in with an IC50 with L1210 of 5 nM. The half-life in series [1] was determined as 0.717 h; in series [2] it was 0.417 h.
In the case of `CC(C)(C)OC(=O)N1CCC[C@H]2C[C@@]23C1=CC(=O)c1ccccc13`, the IC50 in the series with L1210 worked out at 5000 nM. Further, the results for the half-life in series [1] and in series [2] were 2.1 h and 0.03 h, respectively.
Take `CC(C)(C)OC(=O)N1C[C@H]2C[C@@]23C1=CC(=O)c1ccc(C#N)cc13`: the half-life in series [2] stood at 3.55 h.
Still for that read-out and setting: the figure for `COc1ccc2c(c1)[C@@]13C[C@@H]1CN(C(=O)OC(C)(C)C)C3=CC2=O` is 1.83 h.
For `O=C1C=C2CC[C@H]3C[C@@]23c2ccccc21`, the half-life in series [1] is 4 h; in series [2] it was 1.3 h.
For the molecule `CCC(=O)N1C[C@H]2C[C@@]23C1=CC(=O)c1ccccc13`, the half-life in series [2] worked out at 1.6 h.
`Cc1cc2c(s1)[C@@]13C[C@@H]1CN(C(=O)OC(C)(C)C)C3=CC2=O` returned a half-inhibitory concentration (IC50) in the series on L1210 of 25 nM. For the same molecule, the half-life in series [2] was 209 h.
`COC(=O)c1cc2c([nH]1)[C@@]13C[C@@H]1CN(C(=O)c1cc4cc(OC)c(OC)c(OC)c4[nH]1)C3=CC2=O`: in the series on L1210, the half-inhibitory concentration (IC50) is 0.05 nM. This lies in the picomolar range.
Still for that read-out and setting: the figure for `COC(=O)c1cc2c([nH]1)[C@@]13C[C@@H]1CN(C(=O)OC(C)(C)C)C3=CC2=O` is 33 nM.
On to `CC(C)(C)OC(=O)N1CC[C@H]2C[C@@]23C1=CC(=O)c1ccccc13`, for which the half-life in series [1] was 544 h.
`COC(=O)c1ccc(N2C[C@H]3C[C@@]34C2=CC(=O)c2ccccc24)cc1` gave an IC50 in the series on L1210 of 330 nM. In addition, in series [3], the half-life is 138 h.
`CC(C)(C)OC(=O)N1C[C@H]2C[C@@]23C1=CC(=O)c1ccccc13`: in series [1], the Stability result was “Stable”.
For the molecule `COC(=O)N1C[C@H]2C[C@@]23C1=CC(=O)c1ccccc13`, the half-life in series [2] was determined as 0.95 h.
Turning to `Cc1csc2c1[C@@]13C[C@@H]1CN(C(=O)OC(C)(C)C)C3=CC2=O`, it took 30 nM to reach half-maximal inhibition with L1210 (IC50). Besides, the half-life in series [2] was 206 h.
